Values of other authors in patent US20230144779A1, “FORMULATIONS AND METHOD FOR TREATMENT OF INFLAMMATORY DISEASES” (VYOME THERAPEUTICS INC., priority 2019, published 2023).

Question: Which solubility does the source give for `COc1c(C)c2c(c(O)c1C/C=C(\C)CCC(=O)O)C(=O)OC2` [Mycophenolic acid (MPA), Mycophenolic acid] here?
Answer: Practical insoluble, 63 mcg/ml. MPA as such is not available in the market, it is available as salt form Hydrophilic nature as compared to its ester prodrug
